Data as given in patent US11208642B2, “Microbial syringol utilization” (Alliance for Sustainable Energy, LLC, priority 2018, dated 2021).

Experiments:
[1] = target: T1, GcoA-F169A (Amycolatopsis sp., UniProt P0DPQ7, F169A/H210Q); assay: Substrate dissociation constant (KD) by UV/vis spin-state titration; format: binding
T1 construct: GST (N, cleaved yes); made in house; host or cells: E. coli Rosetta 2 (DE3)
Experimental: Guaiacol (FIG. 1A) caused the Soret peak (λ=417 nm) of GcoA-F169A to shift to 387 nm, indicating the conversion of a low-spin to a high-spin species. Syringol (FIG. 1B) caused the Soret peak (λ=417 nm) of GcoA-F169A to shift to 387 nm, indicating the conversion of a low-spin to a high-spin species. 3MC (FIG. 1C) caused the Soret peak (λ=417 nm) of GcoA-F169A to shift to 387 nm, indicating the conversion of a low-spin to a high-spin species. 0-60 μM substrate was titrated into a solution containing 3 μM GcoA-F169A and air-saturated buffer (25 mM HEPES, 50 mM NaCl, pH 7.5, 25° C.) and the spectra monitored until there was no more change, indicating saturation. The solution reached equilibrium prior to each substrate addition. […] Error bars represent ±1 standard deviation of two or more runs.
Zero to 60 μM of guaiacol, syringol, or 3MC in 0.5 or 1 μM aliquots, were titrated into a cuvette containing 3 μM F169A GcoA in 25 mM HEPES, 50 mM NaCl, pH 7.5. The spectrum after each substrate addition was recorded, beginning with no substrate bound. The solution reached equilibrium before the next addition. A difference spectrum was made to illustrate the shift from a low-spin aquo-heme complex to the high-spin substrate-bound complex (spectral shift from 417 nm to 388 nm). […] The absorbance at 388 nm (AbS388-417 nm) was plotted as a function of [substrate], yielding a quadratic curve that was fit to equation (5) to determine the KD.
Where L0, Et, KD, and ΔAbsmax are the ligand concentrations, total protein (subunit) concentration, the equilibrium dissociation constant, and the maximum AbS388-417nm, respectively. Reported values are the average of 2 or more measurements.

[2] = target: T1, GcoA-F169A; assay: Rate of aromatic substrate disappearance by discontinuous HPLC; format: biochemical; details: GcoA-F169A/GcoB, substrate disappearance over time
Experimental: To address whether guaiacol and/or syringol would serve as substrates of GcoA-F169A, the disappearance of NADH (UV/vis) and aromatic substrate (HPLC) was monitored over time (FIG. 1). The rates of organic substrate and NADH consumption were robust and the same within error, regardless of whether guaiacol or syringol was used (5.3±0.3 μM guaiacol s^−1 μmol GcoA-F169A^−1, 5.8±0.8 μM NADH s^−1 μmol GcoA-F169A-1; 4.1±0.3 μM syringol s^−1 μmol GcoA-F169A^−1, 5.1±0.8 μM NADH s^−1 μmol GcoA-F169A^−1).
HPLC for product identification and specific activity measurement. HPLC was used to verify the O-demethylated product of GcoA-F169A GcoA/GcoB with guaiacol, syringol, or 3MC. In addition, discontinuous HPLC was used to determine the specific activity of aromatic […] disappearance.
Analyte analysis of the above end-point reactions (100 μM guaiacol, syringol, or 3MC, or 200 μM syringol) was performed on an Agilent 1100 LC system (Agilent Technologies) equipped with a G1315B diode array detector (DAD). Each sample and standard was injected at a volume of 10 μL onto a Symmetry C18 column 5 μm, 4.6×150 mm column (Waters). The column temperature was maintained at 30° C. and the buffers used to separate the analytes of interest was 0.01% TFA in water (A)/acetonitrile (B). The separation was carried out using a gradient program of: (A)=99% and (B)=1% at time t=0 min; (A)=99% and (B)=1% at time t=2 min, (A)=50% and (B)=50% at t=8 min; (A)=1% and (B)=99% at t=8.01 min; (A)=99% and (B)=1% at t=10.01 min; (A)=99% and (B)=1% at t=11 min. The flow rate was held constant at 1.5 mL min^−1, resulting in a run time of 11 minutes. DAD wavelengths of 210 and 325 nm were used for analysis of the analytes of interest. […] Integrated intensities vs [standards] were plotted and the resulting standard curves used to quantify the reactants and products.
For specific activity determination, 300 μM guaiacol, syringol, or 3MC were added from 0.1 M DMSO stocks to air saturated buffer (25 mM HEPES, 50 mM NaCl, pH 7.5), with a final volume of 1 mL. The concentration of analyte was measured via the above HPLC method. […]

T1 sequence (P0DPQ7 whole entry F169A/H210Q): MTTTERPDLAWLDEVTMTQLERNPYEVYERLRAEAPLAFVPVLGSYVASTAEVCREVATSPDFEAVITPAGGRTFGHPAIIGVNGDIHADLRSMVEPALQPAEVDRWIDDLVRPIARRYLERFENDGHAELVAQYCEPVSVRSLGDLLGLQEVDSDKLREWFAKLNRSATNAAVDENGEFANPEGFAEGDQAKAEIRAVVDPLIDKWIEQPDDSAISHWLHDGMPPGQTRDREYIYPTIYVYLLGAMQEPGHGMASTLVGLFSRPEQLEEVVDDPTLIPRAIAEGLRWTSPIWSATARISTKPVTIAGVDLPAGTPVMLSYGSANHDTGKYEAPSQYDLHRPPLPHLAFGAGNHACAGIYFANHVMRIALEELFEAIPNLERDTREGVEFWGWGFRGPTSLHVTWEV

SMILES | Kd [1] | Rate of organic substrate consumption (HPLC) [2]
COc1cccc(O)c1O [3MC, 3-methoxycatechol] | 9.5 ± 0.02 µM | 2.6±0.3 μM s^−1 μmol GcoA-F169A^−1
COc1cccc(OC)c1O [syringol, 2,6-dimethoxyphenol] | 1.7 ± 0.07 µM | 4.1±0.3 μM s^−1 μmol GcoA-F169A^−1
COc1ccccc1O [guaiacol, 2-methoxyphenol] | 7.1 ± 0.1 µM | 5.3±0.3 μM s^−1 μmol GcoA-F169A^−1
